Results from patent US20150335558A1, “NERVE GROWTH INHIBITOR, CUTANEOUS-SENSORY-IRRITATION INHIBITOR, AND MARKER FOR CUTANEOUS-SENSORY-IRRITATION DETECTION” (HOYU CO., LTD., priority 2012, published 2015).

What was measured:
[1] = tested on: mast cell deficient mice (WBB6F1-W/W^V) and normal control mice (WBB6F1-+/+); test: Scratch bouts of mast cell deficient and normal control mice after 10% SDS application (Sample Experiment 1-2); assay type: in vivo, mouse; conditions: both mast cell deficient and normal control mice, 10% SDS aqueous solution 50 μL single application; no significant difference between both mice
Protocol: The present Sample Experiment was conducted using mast cell deficient mice and normal control mice, and SDS was used as a stimulating substance to analyze the scratch bouts of mice. Further, the amount of histamine in the skin of each mouse was assessed after SDS had been applied. Male mast cell deficient mice at ages of 7 to 8 weeks (WBB6F1-W/W^V mouse), purchased from Japan SLC, and normal control mice that are wild mice at ages of 7 to 8 weeks (WBB6F1-+/+mouse) were used. The mice were given solid feed under free water supply and subjected to preliminary rearing for 7 days or longer under a constant temperature/constant humidity environment with a temperature of 22±2° C., and a humidity of 55±10% before they were used in the test. The mice for use were used in the test at least 3 days after shearing/depilating the rostral back of each mouse. A 10% aqueous solution composed of SDS dissolved in distilled water was applied a single time at 50 μL as a stimulating substance against the skin to the sheared/depilated rostral back of the mice mentioned above. If the surfactant solution had turned hard before application, it was heated and dissolved in a hot water bath of 37° C. before use. Distilled water was applied to the solvent control group (Vehicle). […]

[2] = tested on: ICR mice; test: Scratch bouts of ICR mice after 10% SDS application (Sample Experiment 1-1); assay type: in vivo, mouse; conditions: ICR mice, 10% SDS aqueous solution 50 μL single application to rostral back, Day 0 to Day 4, vs untreated and solvent control
Protocol: The present Sample Experiment was conducted using ICR mice, and an anionic surfactant, namely, sodium dodecyl sulfate (SDS), was used as a stimulating substance to analyze the scratch bouts of mice. After SDS had been applied, terfenadine (TRF) was administered as an antihistamine to determine its effect on scratch bouts.
Male ICR mice at ages of 7 to 8 weeks, purchased from Japan SLC, were used. The mice were given solid feed under free water supply and subjected to preliminary rearing for 7 days or longer under a constant temperature/constant humidity environment with a temperature of 22±2° C., and a humidity of 55±10% before they were used in the test. The mice for use were used in the test at least 3 days after shearing/depilating the rostral back of each mouse. […]
The scratch bouts of mice were performed in view of the Kuraishi et al. report. That is, a single mouse was put in each chamber of the 4 divided sections in an acrylic box (13×9×35 cm) to be acclimated for at least an hour, and they were video recorded in an environment without any person for at least an hour a day from the day of applying the above 10% SDS aqueous solution (Day 0) to the 4th day after application (Day 4) to record their movement. Then, by watching the video, the number of scratch bouts against the rostral back by the hind leg was counted. […]

For `CCCCCCCCCCCCOS(=O)(=O)[O-].[Na+]` [SDS, sodium dodecyl sulfate], the “scratch bouts of mice (number in 60 mins.) after stimulating substance” value [1] was “increased significantly with time” and the “scratch bouts of mice (number in 60 mins.) after stimulating substance” value [2] was “increased significantly over time”.
